Experimental data taken from patent US9434780B2, “Process for preparing human relaxin-2” (Relaxera Pharma GmbH & Co. KG i.G., priority 2011, dated 2016).
Where no end group is shown, it is not given here.

Assays:
human THP-1 cells = experiment: cAMP assay in human THP-1 cells; format: cell-based; conditions: FIG. 6, compared with recombinant relaxin-2
[1] = storage stability of lyophilized relaxin-2; format: physicochemical; conditions: 4° C., stored for several months, compared with fresh material
Description: The product is lyophilized for storage and stored at −20° C. The high stability of the preparation of highly pure relaxin-2 in lyophilized form at a temperature of 4° C. has been proven by corresponding analytics, in which fresh material was compared with material stored for several months.

receptor RXFP1 = molecular target: T1, receptor RXFP1 (Homo sapiens, UniProt Q9HBX9); experiment: displacement of europium-labeled relaxin-2 in HEK-293T cells expressing RXFP1; format: binding; conditions: HEK-293T cells expressing natural receptor RXFP1; compared with recombinant human relaxin-2
T1 construct: expressed in transfected cells; host or cells: HEK-293T
T1 sequence (Q9HBX9 1-757): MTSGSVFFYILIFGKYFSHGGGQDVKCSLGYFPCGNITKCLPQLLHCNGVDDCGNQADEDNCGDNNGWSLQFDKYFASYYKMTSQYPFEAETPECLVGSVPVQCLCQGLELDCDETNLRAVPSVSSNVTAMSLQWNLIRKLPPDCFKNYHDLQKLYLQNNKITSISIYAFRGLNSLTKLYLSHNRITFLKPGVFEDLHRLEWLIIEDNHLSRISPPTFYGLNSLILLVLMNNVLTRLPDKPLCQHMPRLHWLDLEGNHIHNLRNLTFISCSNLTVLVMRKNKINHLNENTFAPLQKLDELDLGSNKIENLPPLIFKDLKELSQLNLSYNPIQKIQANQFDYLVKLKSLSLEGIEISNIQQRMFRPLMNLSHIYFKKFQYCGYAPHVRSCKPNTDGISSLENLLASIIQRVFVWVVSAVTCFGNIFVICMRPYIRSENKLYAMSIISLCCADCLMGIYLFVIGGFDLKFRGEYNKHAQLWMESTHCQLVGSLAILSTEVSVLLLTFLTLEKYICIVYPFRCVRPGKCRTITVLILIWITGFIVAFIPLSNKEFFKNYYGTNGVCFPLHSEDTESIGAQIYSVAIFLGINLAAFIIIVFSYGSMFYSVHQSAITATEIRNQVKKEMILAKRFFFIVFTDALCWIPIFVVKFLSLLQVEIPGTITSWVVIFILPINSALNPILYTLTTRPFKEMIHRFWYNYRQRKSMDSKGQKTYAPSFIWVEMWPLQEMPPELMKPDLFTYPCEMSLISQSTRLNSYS

cardiac fibroblasts = experiment: cell model of myocardial hypertrophy; format: cell-based; conditions: inhibition of cardiac fibroblast differentiation into myofibroblasts and of growth factor secretion; compared with recombinant
Source text: In this model, relaxin inhibits the differentiation of cardiac fibroblasts into myofibroblasts and the secretion of growth factors by these cells (Dschietzig et al., 2006).

cell models = experiment: studies on cell models (bioassays); format: cell-based; conditions: compared with recombinant peptide

Row | Substance | activity in cAMP assay (human THP-1 cells) | stability in lyophilized form [1] | potency in displacing europium-labeled relaxin-2 (receptor RXFP1) | potency in cell model of myocardial hypertrophy (cardiac fibroblasts) | effect on cell models (cell models)
1 | recombinant human relaxin-2: recombinantly prepared human relaxin-2 used as comparator (chain 1 QLYSALANKCCHVGCTKRSLARFC; chain 2 DSWMEEVIKLCGRELVRAQIAICGMSTWS; not fully specified; ends and bridges not checked) [reference compound] | equivalent bioactivities | – | – | – | –
2 | AZ02: batch of relaxin-2 prepared by chemical synthesis (chain 1 ELYSALANKCCHVGCTKRSLARFC; chain 2 DSWMEEVIKLCGRELVRAQIAICGMSTWS; non-natural residues) | comparable to that of the recombinantly prepared relaxin-2 | – | – | – | –
3 | human relaxin-2 [synthetic human relaxin-2] | equivalent bioactivities | only minor amounts of metabolites appear | same potency as recombinant human relaxin-2 | as potent as recombinant human relaxin-2 | excellent effect, comparable to that of the recombinant peptide
